PubChem BioAssay AID1918956 (Molecular Pharmacology Branch, DTP, NCI, 2023)
Values joined by “and” are separate entries in the source; they are usually repeats but may differ in a detail not shown here. Equal values may be shown once.

Tested on: OVCAR-5 complex spheroids, viability
Test: Anticancer human tumor OVCAR-5 cell line growth inhibition;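 further: spheroids exposed to agents for seven days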;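 on viability, T/C: 100% = DMSO vehicle control wells viability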
Conditions: for viability, T/C: stronger effect = lower value
Description: Multicellular complex tumor spheroid response to LSD1 Inhibitor Iadademstat in combination with a variety of drugs and investigational agents in selected tumor cell lines
The current study was undertaken to assess response to LSD1 inhibitors in combination with standard-of-care drugs and investigational agents in solid tumor complex spheroid models as well as in the K-562 leukemia. Complex spheroids include a stromal component modeled by human endothelial cells (HUVEC) and fibroblasts modeled by human mesenchymal stem cells (MSCs). The concentration ranges selected for each drug and investigational agent were based upon clinically achievable concentrations if the clinical Cmax of the agent was known.
Compounds. The drugs and investigational agents used in this study are listed on Table 1. All of the agents used, including staurosporine (NSC755774) and gemcitabine (NSC613327), were obtained from the Developmental Therapeutics Program, NCI. FDA-approved anticancer drugs are available from the NCI at http://dtp.nci.nih.gov/branches/dscb/oncology_drugset_explanation.html. Drugs and investigational agents were >95% pure by proton nuclear magnetic resonance (NMR) and liquid chromatography/mass spectrometry (LC/MS). Stock solutions were prepared at 400x in DMSO, stored at -70 degrees C, and diluted in fresh medium prior to their use. The final concentration of DMSO in cell culture wells never exceeded 0.25% (v/v). The FDA-approved anticancer drug set is available from the Developmental Therapeutics Program at https://dtp.cancer.gov/organization/dscb/obtaining/available_plates.htm. All drugs and investigational agents were tested over a range starting from a high concentration at or near the clinical Cmax and decreasing in half-log increments. If the clinical Cmax for an agent had not been determined, the highest concentration tested was 10 microM.
Cell Lines. The patient-derived cancer cell (PDC) lines: 292921-168-R-J2-PDC, K24384-001-R-PDC, and 521955-158-R2-J5-PDC pancreatic carcinomas, 556581-035-R-J1 ovarian carcinoma, 324938-238-R-J1-PDC, 855422-203-R-J1-PDC and 883617-216-R-J1-PDC urothelial bladder carcinomas, 743489-274-T-PDC renal cell carcinoma, 138582-R-J1 Merkel cell tumor, K60290-347-R-J1 and K57222-313-R-J1-PDC glioblastomas, 653999-131-R-J2-PDC, LG0703-F948-PDC, and 349418-098-R-PDC non-small cell lung carcinomas, 885512-296-R-J2-PDC, 171881-019-R-J1-PDC breast carcinomas and 186277-243-T-J2-PDC and 233499-124-R-J2-PDC colon carcinomas were obtained from the NCI Patient-Derived Models Repository (PDMR, https://pdmr.cancer.gov). The established cell lines NCI/ADR-RES (RRID:CVCL_14520 and OVCAR-5 (RRID:CVCL_1628) ovarian carcinomas, 786-O (RRID:CVCL_1051) and A498 […] renal cell carcinoma, NCI-H211 (ATCC, cat. CRL-5824; RRID:CVCL_1529), NCI-H196 (ATCC, cat. CRL-5823, RRID:CVCL_1509), SW 1271 (ATCC, cat. CRL-2177, RRID:CVCL_1716) and NCI-H1876 (ATCC, cat. CRL-5902, RRID:CVCL_1503) small cell lung carcinomas, MDA-MB-231 (RRID:CVCL_0062) and MDA-MB-468 (RRID:CVCL_0419)breast carcinomas (10-12). Pooled donor human umbilical vein endothelial cells (HUVEC, Lonza, cat. CC-2519) and human mesenchymal stem cells (hMSC, Lonza, cat. PT-2501) were purchased from Lonza (Walkersville, MD).
Cell Culture. All cells were maintained in an incubator at 37 degrees C and 5% CO2 with 95% humidity. The PDC lines were cultured according to standard operating procedures established by the NCI PDMR (https://pdmr.cancer.gov). Briefly all PDCs were thawed and cultured in Matrigel-coated flasks prepared with a working solution of 1X Ham's F-12 nutrient mix, without supplementation (Invitrogen, Waltham, MA, cat. 11765054), 100 U/mL penicillin-streptomycin (Invitrogen, cat. 15140122), and 2.5% Matrigel (Corning Inc., Corning, NY, cat. 354248) for the first three passages. […]

[1] = curve of first compound, second compound 0.1 µM
[2] = curve of first compound, second compound 0.316 µM
[3] = curve of first compound, second compound 1 µM
[4] = curve of first compound, second compound 3.16 µM
[5] = curve of first compound, second compound 10 µM

O=C(C=Cn1cnc(-c2cc(C(F)(F)F)cc(C(F)(F)F)c2)n1)NNc1cnccn1
viability, T/C (compound 0.00316 µM): 91.8% and 90.3%
viability, T/C (compound 0.01 µM): 83.9% and 74.8%
viability, T/C (compound 0.0316 µM): 72.3% and 58.3%
viability, T/C (compound 0.1 µM): 53.3% and 44%
viability, T/C (compound 0.316 µM): 48.7% and 38.9%
viability, T/C (compound 1 µM): 40.4% and 34.1%
IC50 (curve of compound): 196 nM and 63.7 nM

COc1cc(C2c3cc4c(cc3C(OC3OC5COC(C)OC5C(O)C3O)C3COC(=O)C23)OCO4)cc(OC)c1O (stereo not given) + NC1CC1c1ccc(-c2cccc(O)c2)cc1
IC50 [1]: 407 nM
IC50 [2]: 503 nM
IC50 [3]: 397 nM
IC50 [4]: 422 nM
IC50 [5]: 302 nM
viability, T/C (second compound 0.1 µM, first compound 0.00949 µM): 94.9%
viability, T/C (second compound 0.1 µM, first compound 0.03 µM): 93.3%
viability, T/C (second compound 0.1 µM, first compound 0.0949 µM): 80.2%
viability, T/C (second compound 0.1 µM, first compound 0.3 µM): 55.3%
viability, T/C (second compound 0.1 µM, first compound 0.949 µM): 36.1%
viability, T/C (second compound 0.1 µM, first compound 3 µM): 32.5%
viability, T/C (second compound 0.316 µM, first compound 0.00949 µM): 96.7%
viability, T/C (second compound 0.316 µM, first compound 0.03 µM): 109%
viability, T/C (second compound 0.316 µM, first compound 0.0949 µM): 91.8%
viability, T/C (second compound 0.316 µM, first compound 0.3 µM): 61.7%
viability, T/C (second compound 0.316 µM, first compound 0.949 µM): 35.8%
viability, T/C (second compound 0.316 µM, first compound 3 µM): 32.3%
viability, T/C (second compound 1 µM, first compound 0.00949 µM): 100%
viability, T/C (second compound 1 µM, first compound 0.03 µM): 103%
viability, T/C (second compound 1 µM, first compound 0.0949 µM): 85.5%
viability, T/C (second compound 1 µM, first compound 0.3 µM): 56.8%
viability, T/C (second compound 1 µM, first compound 0.949 µM): 31.4%
viability, T/C (second compound 1 µM, first compound 3 µM): 32.4%
viability, T/C (second compound 3.16 µM, first compound 0.00949 µM): 89.1%
viability, T/C (second compound 3.16 µM, first compound 0.03 µM): 85.2%
viability, T/C (second compound 3.16 µM, first compound 0.0949 µM): 74.9%
viability, T/C (second compound 3.16 µM, first compound 0.3 µM): 55%
viability, T/C (second compound 3.16 µM, first compound 0.949 µM): 38.4%
viability, T/C (second compound 3.16 µM, first compound 3 µM): 34.6%
viability, T/C (second compound 10 µM, first compound 0.00949 µM): 85.1%
viability, T/C (second compound 10 µM, first compound 0.03 µM): 88.8%
viability, T/C (second compound 10 µM, first compound 0.0949 µM): 67.5%
viability, T/C (second compound 10 µM, first compound 0.3 µM): 53.3%
viability, T/C (second compound 10 µM, first compound 0.949 µM): 35.2%
viability, T/C (second compound 10 µM, first compound 3 µM): 37%

Nc1ncn(C2CC(O)C(CO)O2)c(=O)n1 (stereo not given)
viability, T/C (compound 0.00316 µM): 93.5% and 108%
viability, T/C (compound 0.01 µM): 94% and 87.9%
viability, T/C (compound 0.0316 µM): 88.2% and 75.7%
viability, T/C (compound 0.1 µM): 77.1% and 76.2%
viability, T/C (compound 0.316 µM): 72.5% and 69%
viability, T/C (compound 1 µM): 72.5% and 69.2%
IC50 (curve of compound): > 1000 nM

CC1(C)CCC(CN2CCN(c3ccc(C(=O)NS(=O)(=O)c4ccc(NCC5CCOCC5)c([N+](=O)[O-])c4)c(Oc4cnc5[nH]ccc5c4)c3)CC2)=C(c2ccc(Cl)cc2)C1
viability, T/C (compound 0.0316 µM): 98% and 105%
viability, T/C (compound 0.1 µM): 101% and 98.1%
viability, T/C (compound 0.316 µM): 95.8% and 105%
viability, T/C (compound 1 µM): 107% and 105%
viability, T/C (compound 3.16 µM): 107% and 103%
viability, T/C (compound 10 µM): 33.7% and 40.2%
IC50 (curve of compound): 7590 nM and 8360 nM

COc1cc(C2c3cc4c(cc3C(OC3OC5COC(C)OC5C(O)C3O)C3COC(=O)C23)OCO4)cc(OC)c1O (stereo not given)
viability, T/C (compound 0.00949 µM): 108% and 107%
viability, T/C (compound 0.03 µM): 110% and 94.7%
viability, T/C (compound 0.0949 µM): 101% and 84.4%
viability, T/C (compound 0.3 µM): 69.6% and 60.9%
viability, T/C (compound 0.949 µM): 44% and 35.2%
viability, T/C (compound 3 µM): 39% and 33.6%
IC50 (curve of compound): 718 nM and 501 nM

Cn1ncnc1C1c2n[nH]c(=O)c3cc(F)cc(c23)NC1c1ccc(F)cc1 (stereo not given) + NC1CCC(NC2CC2c2ccccc2)CC1
IC50 [1]: > 100 nM
IC50 [2]: > 100 nM
IC50 [3]: > 100 nM
IC50 [4]: > 100 nM
IC50 [5]: > 100 nM
viability, T/C (second compound 0.1 µM, first compound 0.000316 µM): 109%
viability, T/C (second compound 0.1 µM, first compound 0.001 µM): 95.3%
viability, T/C (second compound 0.1 µM, first compound 0.00316 µM): 104%
viability, T/C (second compound 0.1 µM, first compound 0.01 µM): 104%
viability, T/C (second compound 0.1 µM, first compound 0.0316 µM): 99.5%
viability, T/C (second compound 0.1 µM, first compound 0.1 µM): 100%
viability, T/C (second compound 0.316 µM, first compound 0.000316 µM): 112%
viability, T/C (second compound 0.316 µM, first compound 0.001 µM): 98.7%
viability, T/C (second compound 0.316 µM, first compound 0.00316 µM): 98.3%
viability, T/C (second compound 0.316 µM, first compound 0.01 µM): 96%
viability, T/C (second compound 0.316 µM, first compound 0.0316 µM): 91.9%
viability, T/C (second compound 0.316 µM, first compound 0.1 µM): 104%
viability, T/C (second compound 1 µM, first compound 0.000316 µM): 109%
viability, T/C (second compound 1 µM, first compound 0.001 µM): 96.2%
viability, T/C (second compound 1 µM, first compound 0.00316 µM): 95.7%
viability, T/C (second compound 1 µM, first compound 0.01 µM): 99.3%
viability, T/C (second compound 1 µM, first compound 0.0316 µM): 99%
viability, T/C (second compound 1 µM, first compound 0.1 µM): 94.3%
viability, T/C (second compound 3.16 µM, first compound 0.000316 µM): 97.4%
viability, T/C (second compound 3.16 µM, first compound 0.001 µM): 95.9%
viability, T/C (second compound 3.16 µM, first compound 0.00316 µM): 87.9%
viability, T/C (second compound 3.16 µM, first compound 0.01 µM): 91.3%
viability, T/C (second compound 3.16 µM, first compound 0.0316 µM): 80.2%
viability, T/C (second compound 3.16 µM, first compound 0.1 µM): 91.5%
viability, T/C (second compound 10 µM, first compound 0.000316 µM): 86%
viability, T/C (second compound 10 µM, first compound 0.001 µM): 107%
viability, T/C (second compound 10 µM, first compound 0.00316 µM): 81.4%
viability, T/C (second compound 10 µM, first compound 0.01 µM): 79%
viability, T/C (second compound 10 µM, first compound 0.0316 µM): 67.6%
viability, T/C (second compound 10 µM, first compound 0.1 µM): 81.3%

CC1COCCN1c1cc(-c2ccnn2C)c2ccnc(-c3ccn[nH]3)c2n1 (stereo not given)
viability, T/C (compound 0.00316 µM): 105% and 92.5%
viability, T/C (compound 0.01 µM): 86.5% and 81.7%
viability, T/C (compound 0.0316 µM): 58.9% and 50.4%
viability, T/C (compound 0.1 µM): 39.9% and 36.2%
viability, T/C (compound 0.316 µM): 34.4% and 32.6%
viability, T/C (compound 1 µM): 32.2% and 27%
IC50 (curve of compound): 54.5 nM and 35.5 nM
